Source: patent US20240050428A1 (Cullgen (Shanghai), Inc., priority 2020, published 2024)
Read-outs that look alike come from different tables or passages of the source.

Key:
MV4;11 cells = experiment: Cell viability assay (CellTiter-Glo) in MV4;11 cells, alone or with gilteritinib; format: cell-based; details: Homo sapiens, MV4-11, 72 h, MV4;11 cells, three days, CellTiter-Glo, read-out: MV4
MOLM-13 cells = experiment: Cell viability assay (CellTiter-Glo) in MOLM-13 cells, alone or with gilteritinib; format: cell-based; details: Homo sapiens, MOLM-13, 72 h, MOLM-13 cells, three days, CellTiter-Glo
[1] = compound alone (without gilteritinib), 11 IC50
[2] = with gilteritinib 10 nM, 11 IC50 gilteritinib
[3] = compound alone (without gilteritinib), read-out: MOLM-13 IC50
[4] = with gilteritinib 20 nM, read-out: MOLM-13 IC50 gilteritinib

Structure (SMILES) | IC50 (MV4;11 cells; [1]) [nM] | IC50 (MV4;11 cells; [2]) [nM] | IC50 (MOLM-13 cells; [3]) [nM] | IC50 (MOLM-13 cells; [4]) [nM]
O=C1CCC(N2C(=O)c3ccc(NC[C@H]4C[C@H](n5cc(-c6cc7cc[nH]c7cn6)c(C6CC6)n5)C4)cc3C2=O)C(=O)N1 (stereo partly drawn) [GS-279, 5-(((trans-3-(3-Cyclopropyl-4-(1H-pyrrolo[2,3-c]pyridin-5-yl)-1H-pyrazol-1-yl)cyclobutyl)methyl)amino)-2-(2,6-dioxopiperidin-3-yl)isoindoline-1,3-dione] | 100 to 1000 | 10 to 100 | > 1000 | 10 to 100
O=C1CCC(N2C(=O)c3ccc(NC[C@H]4C[C@H](n5cc(-c6nccc7cnccc67)c(C6CC6)n5)C4)cc3C2=O)C(=O)N1 (stereo partly drawn) [GS-280, 5-(((trans-3-(3-Cyclopropyl-4-(2,6-naphthyridin-1-yl)-1H-pyrazol-1-yl)cyclobutyl)methyl)amino)-2-(2,6-dioxopiperidin-3-yl)isoindoline-1,3-dione] | < 10 | < 10 | < 10 | < 10
O=C1CCC(N2C(=O)c3ccc(NC[C@H]4C[C@H](n5cc(-c6nccc7ncccc67)c(C6CC6)n5)C4)cc3C2=O)C(=O)N1 (stereo partly drawn) [GS-281, 5-(((trans-3-(3-Cyclopropyl-4-(1,6-naphthyridin-5-yl)-1H-pyrazol-1-yl)cyclobutyl)methyl)amino)-2-(2,6-dioxopiperidin-3-yl)isoindoline-1,3-dione] | < 10 | < 10 | 10 to 100 | < 10
O=C1CCC(N2C(=O)c3ccc(NC[C@H]4C[C@H](n5cc(-c6cc7[nH]ccc7cn6)c(C6CC6)n5)C4)cc3C2=O)C(=O)N1 (stereo partly drawn) [GS-282, 5-(((trans-3-(3-Cyclopropyl-4-(1H-pyrrolo[3,2-c]pyridin-6-yl)-1H-pyrazol-1-yl)cyclobutyl)methyl)amino)-2-(2,6-dioxopiperidin-3-yl)isoindoline-1,3-dione] | 10 to 100 | < 10 | 100 to 1000 | 10 to 100
O=C1CCC(N2C(=O)c3ccc(NC[C@H]4C[C@H](n5cc(-c6ccc(F)cn6)c(C6CC6)n5)C4)cc3C2=O)C(=O)N1 (stereo partly drawn) [GS-283, 5-(((trans-3-(3-Cyclopropyl-4-(5-fluoropyridin-2-yl)-1H-pyrazol-1-yl)cyclobutyl)methyl)amino)-2-(2,6-dioxopiperidin-3-yl)isoindoline-1,3-dione] | 100 to 1000 | 10 to 100 | > 1000 | 10 to 100
O=C1CCC(N2C(=O)c3ccc(NC[C@H]4C[C@H](n5cc(-c6cc7nccnc7cn6)c(C6CC6)n5)C4)cc3C2=O)C(=O)N1 (stereo partly drawn) [GS-285, 5-(((trans-3-(3-Cyclopropyl-4-(pyrido[3,4-b]pyrazin-7-yl)-1H-pyrazol-1-yl)cyclobutyl)methyl)amino)-2-(2,6-dioxopiperidin-3-yl)isoindoline-1,3-dione] | 10 to 100 | < 10 | 100 to 1000 | 10 to 100
O=C1CCC(N2C(=O)c3ccc(NC[C@H]4C[C@H](n5cc(-c6ncccc6OC(F)(F)F)c(C6CC6)n5)C4)cc3C2=O)C(=O)N1 (stereo partly drawn) [GS-287, 5-(((trans-3-(3-Cyclopropyl-4-(3-(trifluoromethoxy)pyridin-2-yl)-1H-pyrazol-1-yl)cyclobutyl)methyl)amino)-2-(2,6-dioxopiperidin-3-yl)isoindoline-1,3-dione] | < 10 | < 10 | < 10 | < 10
O=C1CCC(N2C(=O)c3ccc(NC[C@H]4C[C@H](n5cc(-c6ccccc6F)c(C6CC6)n5)C4)cc3C2=O)C(=O)N1 (stereo partly drawn) [GS-289, 5-(((trans-3-(3-Cyclopropyl-4-(2-fluorophenyl)-1H-pyrazol-1-yl)cyclobutyl)methyl)amino)-2-(2,6-dioxopiperidin-3-yl)isoindoline-1,3-dione] | 10 to 100 | < 10 | 100 to 1000 | 10 to 100
O=C1CCC(N2C(=O)c3ccc(NC[C@H]4C[C@H](n5cc(-c6cc(F)ccn6)c(C6CC6)n5)C4)cc3C2=O)C(=O)N1 (stereo partly drawn) [GS-290, 5-(((trans-3-(3-Cyclopropyl-4-(4-fluoropyridin-2-yl)-1H-pyrazol-1-yl)cyclobutyl)methyl)amino)-2-(2,6-dioxopiperidin-3-yl)isoindoline-1,3-dione] | > 1000 | 10 to 100 | > 1000 | 100 to 1000
CN1CCC(Nc2ccnc(-c3cn([C@H]4C[C@H](CNc5ccc6c(c5)C(=O)N(C5CCC(=O)NC5=O)C6=O)C4)nc3C3CC3)c2)CC1 (stereo partly drawn) [GS-295, 5-(((trans-3-(3-Cyclopropyl-4-(4-((1-methylpiperidin-4-yl)amino)pyridin-2-yl)-1H-pyrazol-1-yl)cyclobutyl)methyl)amino)-2-(2,6-dioxopiperidin-3-yl)isoindoline-1,3-dione] | > 1000 | > 1000 | > 1000 | > 1000
O=C1CCC(N2C(=O)c3ccc(NC[C@H]4C[C@H](n5cc(-c6ncccc6F)c(C6CC6)n5)C4)cc3C2=O)C(=O)N1 (stereo partly drawn) [GS-296, 5-(((trans-3-(3-Cyclopropyl-4-(3-fluoropyridin-2-yl)-1H-pyrazol-1-yl)cyclobutyl)methyl)amino)-2-(2,6-dioxopiperidin-3-yl)isoindoline-1,3-dione] | 10 to 100 | 10 to 100 | 100 to 1000 | 10 to 100
CN1CCN(c2ccc(-c3cn([C@H]4C[C@H](CNc5ccc6c(c5)C(=O)N(C5CCC(=O)NC5=O)C6=O)C4)nc3C3CC3)nc2)CC1 (stereo partly drawn) [GS-298, 5-(((trans-3-(3-Cyclopropyl-4-(5-(4-methylpiperazin-1-yl)pyridin-2-yl)-1H-pyrazol-1-yl)cyclobutyl)methyl)amino)-2-(2,6-dioxopiperidin-3-yl)isoindoline-1,3-dione] | > 1000 | > 1000 | > 1000 | > 1000

More lines, now with the values ahead:

IC50 (MV4;11 cells; [1]) [nM] | IC50 (MV4;11 cells; [2]) [nM] | IC50 (MOLM-13 cells; [3]) [nM] | IC50 (MOLM-13 cells; [4]) [nM] | Structure (SMILES)
< 10 | < 10 | < 10 | < 10 | O=C1CCC(N2C(=O)c3ccc(NC[C@H]4C[C@H](n5cc(-c6nccc7ccncc67)c(C6CC6)n5)C4)cc3C2=O)C(=O)N1 (stereo partly drawn) [GS-284, 5-(((trans-3-(3-Cyclopropyl-4-(2,7-naphthyridin-1-yl)-1H-pyrazol-1-yl)cyclobutyl)methyl)amino)-2-(2,6-dioxopiperidin-3-yl)isoindoline-1,3-dione]
< 10 | < 10 | < 10 | < 10 | O=C1CCC(N2C(=O)c3ccc(NC[C@H]4C[C@H](n5cc(-c6nccc7cccnc67)c(C6CC6)n5)C4)cc3C2=O)C(=O)N1 (stereo partly drawn) [GS-286, 5-(((trans-3-(3-Cyclopropyl-4-(1,7-naphthyridin-8-yl)-1H-pyrazol-1-yl)cyclobutyl)methyl)amino)-2-(2,6-dioxopiperidin-3-yl)isoindoline-1,3-dione]
100 to 1000 | 10 to 100 | 100 to 1000 | 10 to 100 | O=C1CCC(N2C(=O)c3ccc(NC[C@H]4C[C@H](n5cc(-c6cc7[nH]ncc7cn6)c(C6CC6)n5)C4)cc3C2=O)C(=O)N1 (stereo partly drawn) [GS-288, 5-(((trans-3-(3-Cyclopropyl-4-(1H-pyrazolo[4,3-c]pyridin-6-yl)-1H-pyrazol-1-yl)cyclobutyl)methyl)amino)-2-(2,6-dioxopiperidin-3-yl)isoindoline-1,3-dione]
> 1000 | 10 to 100 | > 1000 | 10 to 100 | O=C1CCC(N2C(=O)c3ccc(NC[C@H]4C[C@H](n5cc(-c6nccc7cc[nH]c67)c(C6CC6)n5)C4)cc3C2=O)C(=O)N1 (stereo partly drawn) [GS-291, 5-(((trans-3-(3-Cyclopropyl-4-(1H-pyrrolo[2,3-c]pyridin-7-yl)-1H-pyrazol-1-yl)cyclobutyl)methyl)amino)-2-(2,6-dioxopiperidin-3-yl)isoindoline-1,3-dione]
> 1000 | > 1000 | > 1000 | > 1000 | CN1CC(Nc2cccc(-c3cn([C@H]4C[C@H](CNc5ccc6c(c5)C(=O)N(C5CCC(=O)NC5=O)C6=O)C4)nc3C3CC3)n2)C1 (stereo partly drawn) [GS-292, 5-(((trans-3-(3-Cyclopropyl-4-(6-((1-methylazetidin-3-yl)amino)pyridin-2-yl)-1H-pyrazol-1-yl)cyclobutyl)methyl)amino)-2-(2,6-dioxopiperidin-3-yl)isoindoline-1,3-dione]
100 to 1000 | 10 to 100 | > 1000 | 100 to 1000 | O=C1CCC(N2C(=O)c3ccc(NC[C@H]4C[C@H](n5cc(-c6cc7cn[nH]c7cn6)c(C6CC6)n5)C4)cc3C2=O)C(=O)N1 (stereo partly drawn) [GS-293, 5-(((trans-3-(3-Cyclopropyl-4-(1H-pyrazolo[3,4-c]pyridin-5-yl)-1H-pyrazol-1-yl)cyclobutyl)methyl)amino)-2-(2,6-dioxopiperidin-3-yl)isoindoline-1,3-dione]
> 1000 | > 1000 | > 1000 | > 1000 | O=C1CCC(N2C(=O)c3ccc(NC[C@H]4C[C@H](n5cc(-c6cc(NC7CCNCC7)ccn6)c(C6CC6)n5)C4)cc3C2=O)C(=O)N1 (stereo partly drawn) [GS-294, 5-(((trans-3-(3-Cyclopropyl-4-(4-(piperidin-4-ylamino)pyridin-2-yl)-1H-pyrazol-1-yl)cyclobutyl)methyl)amino)-2-(2,6-dioxopiperidin-3-yl)isoindoline-1,3-dione]
> 1000 | > 1000 | > 1000 | > 1000 | O=C1CCC(N2C(=O)c3ccc(NC[C@H]4C[C@H](n5cc(-c6ccc(N7CCNCC7)cn6)c(C6CC6)n5)C4)cc3C2=O)C(=O)N1 (stereo partly drawn) [GS-297, 5-(((trans-3-(3-Cyclopropyl-4-(5-(piperazin-1-yl)pyridin-2-yl)-1H-pyrazol-1-yl)cyclobutyl)methyl)amino)-2-(2,6-dioxopiperidin-3-yl)isoindoline-1,3-dione]
